Legend:
Assay in all cases: Direct binding Salmonella assay (chemiluminescence immunosorbent)
S. aberdeen [1] = tested on: S. aberdeen
E. coli = tested on: E. coli
S. aberdeen [2] = tested on: S. aberdeen; remark: listed apart in the source
Description: After 5 hours of culture, a 2 ml aliquot of the sample was removed and SDS was added to a final concentration of 0.5% (w/v). The sample was heated to 100° C. for 5 minutes and allowed to cool. One hundred microlitres of each test sample was added directly to a well of a solid white 96 well high binding microtitre plate (Greiner Bio One) and incubated at 37° C. for 30 minutes. During incubation, the lipid A portion of the LPS binds to the surface of the plate via non-covalent hydrophobic interactions (FIG. 1a (1), FIG. 1b(1)).
The final concentration of antibody per well was 50 ng. The plate-bound sample (Salmonella LPS/core oligosaccharide) and antibody were incubated in the coated wells for 30 minutes as 37° C. Following incubation, plates were washed three times in wash buffer and pat dried prior to detection (FIG. 1a(2), FIG. 1b(2)).
When the anti-Salmonella is directly labelled with acridinium ester, plates were placed into a luminometer. 30 μl of trigger solution A and 60 μl of trigger solution B was added to each well of the microtitre plate to initiate light output from conjugated acridinium ester (FIG. 1a(3)). The luminometer settings were as follows:
When the anti-Salmonella antibody is not labelled, a second binding member, a goat anti-mouse IgG2b conjugate is used. Post column IgG2b was diluted 1:100 in a diluent comprising 3% (w/v) non-fat milk powder and 0.05% (v/v) Tween 20 and 100 ul of this solution was added to each well of the plate (FIG. 1b(3)). Following incubation at 37° C. for 60 minutes the plate was washed four times in wash buffer, dried and read as above (FIG. 1b(4)).
The wells of an assay plate are coated with standard concentrations of bacteria for 1 hour at 37° C. These standard concentrations are: 10^6, 10^5, 5×10^4, 2.5×10^4, 10^4 and 5×10^3 and blank wells containing 10^6 E. coli. The fractions to be tested are diluted 1:100 in assay buffer and […] is added to each well and incubated at 37° C. for 20 minutes. The wells are then read on the luminometer, as above.

CCCCCCCCCCCCOS(=O)(=O)[O-].[Na+] [SDS, sodium dodecyl sulphate]
signal, direct binding Salmonella assay (S. aberdeen [1]; 0.5% (w/v) SDS (first block), conjugate 1:100, 10^4 S. aberdeen, black and white plates): 796 ± 23
signal, direct binding Salmonella assay (S. aberdeen [1]; 0.5% (w/v) SDS (first block), conjugate 1:100, 10^5 S. aberdeen, black and white plates): 2,259 ± 103
signal, direct binding Salmonella assay (S. aberdeen [1]; 0.5% (w/v) SDS (first block), conjugate 1:100, 10^6 S. aberdeen, black and white plates): 16,959 ± 360^
signal, direct binding Salmonella assay (S. aberdeen [1]; 0.5% (w/v) SDS (first block), conjugate 1:100, Peptone, black and white plates): 705 ± 97
signal, direct binding Salmonella assay (S. aberdeen [1]; 0.5% (w/v) SDS, conjugate 1:50, Peptone, black and white plate, tube luminometer): 1198 ± 112
signal, direct binding Salmonella assay (S. aberdeen [1]; 0.5% (w/v) SDS, conjugate 1:50, S. aberdeen 2.5 × 10^4, black and white plate, tube luminometer): 6697 ± 1676
signal, direct binding Salmonella assay (S. aberdeen [1]; 0.5% (w/v) SDS, conjugate 1:50, S. aberdeen 5 × 10^3, black and white plate, tube luminometer): 1622 ± 21
signal, direct binding Salmonella assay (S. aberdeen [1]; 0.5% (w/v) SDS, conjugate 1:50, S. aberdeen 5 × 10^4, black and white plate, tube luminometer): 12,231 ± 723^
signal, direct binding Salmonella assay (S. aberdeen [1]; 0.5% (w/v) SDS, conjugate 1:50, S. aberdeen 10^4, black and white plate, tube luminometer): 3199 ± 735
signal, direct binding Salmonella assay (S. aberdeen [1]; 0.5% (w/v) SDS, conjugate 1:50, S. aberdeen 10^5, black and white plate, tube luminometer): 22,245 ± 529^
signal, direct binding Salmonella assay (S. aberdeen [1]; 0.5% (w/v) SDS, conjugate 1:50, S. aberdeen 10^6, black and white plate, tube luminometer): 59,070 ± 1216
signal, direct binding Salmonella assay (S. aberdeen [1]; 0.5% SDS (second block), conjugate 1:100, 2.5 × 10^4 S. aberdeen, black and white plates): 1,265 ± 46^
signal, direct binding Salmonella assay (S. aberdeen [1]; 0.5% SDS (second block), conjugate 1:100, 5 × 10^3 S. aberdeen, black and white plates): 748 ± 4
signal, direct binding Salmonella assay (S. aberdeen [1]; 0.5% SDS (second block), conjugate 1:100, 10^4 S. aberdeen, black and white plates): 908 ± 10
signal, direct binding Salmonella assay (S. aberdeen [1]; 0.5% SDS (second block), conjugate 1:100, 10^5 S. aberdeen, black and white plates): 3,947 ± 494
signal, direct binding Salmonella assay (S. aberdeen [1]; 0.5% SDS (second block), conjugate 1:100, 10^6 S. aberdeen, black and white plates): 26,621 ± 843^
signal, direct binding Salmonella assay (S. aberdeen [1]; 0.5% SDS (second block), conjugate 1:100, Peptone, black and white plates): 631 ± 38
signal, release and detection of core oligosaccharide (S. aberdeen [1]; 0.5% SDS, 10^1 bacteria (species not given)): 9918 relative light units
signal, release and detection of core oligosaccharide (S. aberdeen [1]; 0.5% SDS, 10^2 bacteria (species not given)): 9987 relative light units
signal, release and detection of core oligosaccharide (S. aberdeen [1]; 0.5% SDS, 10^3 bacteria (species not given)): 30399 relative light units
signal, release and detection of core oligosaccharide (S. aberdeen [1]; 0.5% SDS, 10^5 bacteria (species not given)): 959119 relative light units
signal, release and detection of core oligosaccharide (S. aberdeen [1]; 0.5% SDS, 10^6 bacteria (species not given)): 884352 relative light units
signal, direct binding Salmonella assay (S. aberdeen [1]; 0.5% SDS, conjugate 1:100, 2.5 × 10^4 S. aberdeen, white plate, Lucy I): 95,766 ± 6,186
signal, direct binding Salmonella assay (S. aberdeen [1]; 0.5% SDS, conjugate 1:100, 5 × 10^3 S. aberdeen, white plate, Lucy I): 24,984 ± 1,727
signal, direct binding Salmonella assay (S. aberdeen [1]; 0.5% SDS, conjugate 1:100, 5 × 10^4 S. aberdeen, white plate, Lucy I): 95,766 ± 6,186
signal, direct binding Salmonella assay (S. aberdeen [1]; 0.5% SDS, conjugate 1:100, 10^4 S. aberdeen, white plate, Lucy I): 46,273 ± 2,310
signal, direct binding Salmonella assay (S. aberdeen [1]; 0.5% SDS, conjugate 1:100, 10^5 S. aberdeen, white plate, Lucy I): 166,049 ± 288
signal, direct binding Salmonella assay (S. aberdeen [1]; 0.5% SDS, conjugate 1:100, 10^6 S. aberdeen, white plate, Lucy I): 374,007 ± 24,114
signal, direct binding Salmonella assay (S. aberdeen [1]; 0.5% SDS, conjugate 1:100, Peptone, black and white plate, tube luminometer): 974 ± 107
signal, direct binding Salmonella assay (S. aberdeen [1]; 0.5% SDS, conjugate 1:100, Peptone, white plate, Lucy I): 3,103 ± 267
signal, direct binding Salmonella assay (S. aberdeen [1]; 0.5% SDS, conjugate 1:100, S. aberdeen 2.5 × 10^4, black and white plate, tube luminometer): 3933 ± 379
signal, direct binding Salmonella assay (S. aberdeen [1]; 0.5% SDS, conjugate 1:100, S. aberdeen 5 × 10^3, black and white plate, tube luminometer): 1209 ± 66
signal, direct binding Salmonella assay (S. aberdeen [1]; 0.5% SDS, conjugate 1:100, S. aberdeen 5 × 10^4, black and white plate, tube luminometer): 8721 ± 63
signal, direct binding Salmonella assay (S. aberdeen [1]; 0.5% SDS, conjugate 1:100, S. aberdeen 10^4, black and white plate, tube luminometer): 1606 ± 243
signal, direct binding Salmonella assay (S. aberdeen [1]; 0.5% SDS, conjugate 1:100, S. aberdeen 10^5, black and white plate, tube luminometer): 15,009 ± 871^
signal, direct binding Salmonella assay (S. aberdeen [1]; 0.5% SDS, conjugate 1:100, S. aberdeen 10^6, black and white plate, tube luminometer): 40,190 ± 783^
signal, direct binding Salmonella assay (S. aberdeen [1]; 0.5% SDS, conjugate 1:150, Peptone, black and white plate, tube luminometer): 998 ± 103
signal, direct binding Salmonella assay (S. aberdeen [1]; 0.5% SDS, conjugate 1:150, S. aberdeen 2.5 × 10^4, black and white plate, tube luminometer): 1615 ± 132
signal, direct binding Salmonella assay (S. aberdeen [1]; 0.5% SDS, conjugate 1:150, S. aberdeen 5 × 10^3, black and white plate, tube luminometer): 975 ± 42
signal, direct binding Salmonella assay (S. aberdeen [1]; 0.5% SDS, conjugate 1:150, S. aberdeen 5 × 10^4, black and white plate, tube luminometer): 6576 ± 549
signal, direct binding Salmonella assay (S. aberdeen [1]; 0.5% SDS, conjugate 1:150, S. aberdeen 10^4, black and white plate, tube luminometer): 1415 ± 132
signal, direct binding Salmonella assay (S. aberdeen [1]; 0.5% SDS, conjugate 1:150, S. aberdeen 10^5, black and white plate, tube luminometer): 12,817 ± 975^
signal, direct binding Salmonella assay (S. aberdeen [1]; 0.5% SDS, conjugate 1:150, S. aberdeen 10^6, black and white plate, tube luminometer): 31,571 ± 2
signal, direct binding Salmonella assay (E. coli; 0% SDS, conjugate 1:100, 10^6 E. coli, black and white plates): 579 ± 37
signal, direct binding Salmonella assay (E. coli; 0.1% (w/v) SDS, conjugate 1:100, 10^6 E. coli, white plate, Lucy I): 4,151 ± 256^
signal, direct binding Salmonella assay (E. coli; 0.1% SDS (first block), conjugate 1:100, 10^6 E. coli, black and white plates): 579 ± 37
signal, direct binding Salmonella assay (E. coli; 0.1% SDS (second block), conjugate 1:100, 10^6 E. coli, black and white plates): 658 ± 108
signal, direct binding Salmonella assay (E. coli; 0.2% (w/v) SDS, conjugate 1:100, 10^6 E. coli, white plate, Lucy I): 3,322 ± 479
signal, direct binding Salmonella assay (E. coli; 0.3% SDS, conjugate 1:100, 10^6 E. coli, white plate, Lucy I): 2,491 ± 107
signal, direct binding Salmonella assay (E. coli; 0.4% SDS, conjugate 1:100, 10^6 E. coli, white plate, Lucy I): 3,197 ± 5
signal, direct binding Salmonella assay (E. coli; 0.5% (w/v) SDS (first block), conjugate 1:100, 10^6 E. coli, black and white plates): 684 ± 88
signal, direct binding Salmonella assay (E. coli; 0.5% (w/v) SDS, conjugate 1:50, E. coli 10^6, black and white plate, tube luminometer): 958 ± 242
signal, direct binding Salmonella assay (E. coli; 0.5% SDS (second block), conjugate 1:100, 10^6 E. coli, black and white plates): 714 ± 74
signal, direct binding Salmonella assay (E. coli; 0.5% SDS, conjugate 1:100, 10^6 E. coli, black and white plate, tube luminometer): 922 ± 78
signal, direct binding Salmonella assay (E. coli; 0.5% SDS, conjugate 1:100, 10^6 E. coli, white plate, Lucy I): 4,574 ± 1,885
signal, direct binding Salmonella assay (E. coli; 0.5% SDS, conjugate 1:150, 10^6 E. coli, black and white plate, tube luminometer): 707 ± 11
signal, direct binding Salmonella assay (S. aberdeen [2]; 0.5% SDS (second block), conjugate 1:100, 5 × 10^4 S. aberdeen, black and white plates): 2,213 ± 170
signal, release and detection of core oligosaccharide (S. aberdeen [2]; 0.5% SDS, 10^4 bacteria (species not given)): 495603 relative light units
enhancement of binding between binding member (antibody) and epitope (S. aberdeen [2]; direct assay): ≤ 10 fold

— patent US20110159515A1, “COMPOSITIONS AND METHODS FOR THE RAPID GROWTH AND DETECTION OF MICROORGANISMS” (SOLUS SCIENTIFIC SOLUTIONS LIMITED, priority 2008, published 2011)
